Our source for the IC50 values is US20190322676A1, “CERAMIDE GALACTOSYLTRANSFERASE INHIBITORS FOR THE TREATMENT OF DISEASE” (BioMarin Pharmaceutical Inc., priority 2016, published 2019).

In general, pIC50 refers to the IC50 on a negative log10 scale, so that one unit is a factor of ten. Read a high pIC50 as a low IC50.

Each structure is given as a SMILES string. pIC50: −log10 of the molar value. Structures can show the parent of a compound that is named as a salt.

The target of this assay is T1, human CGT (ceramide galactosyltransferase), CHO/CGT lysate (Homo sapiens, UniProt Q16880).
T1 construct: Full-length human CGT cDNA was cloned into the BamH1/Xho1 site of pcDNA3.1 (+); expressed in transfected cells; host or cells: Chinese hamster ovary (CHO) cells; lysate prepared with M-PER
T1 sequence (Q16880 21-541): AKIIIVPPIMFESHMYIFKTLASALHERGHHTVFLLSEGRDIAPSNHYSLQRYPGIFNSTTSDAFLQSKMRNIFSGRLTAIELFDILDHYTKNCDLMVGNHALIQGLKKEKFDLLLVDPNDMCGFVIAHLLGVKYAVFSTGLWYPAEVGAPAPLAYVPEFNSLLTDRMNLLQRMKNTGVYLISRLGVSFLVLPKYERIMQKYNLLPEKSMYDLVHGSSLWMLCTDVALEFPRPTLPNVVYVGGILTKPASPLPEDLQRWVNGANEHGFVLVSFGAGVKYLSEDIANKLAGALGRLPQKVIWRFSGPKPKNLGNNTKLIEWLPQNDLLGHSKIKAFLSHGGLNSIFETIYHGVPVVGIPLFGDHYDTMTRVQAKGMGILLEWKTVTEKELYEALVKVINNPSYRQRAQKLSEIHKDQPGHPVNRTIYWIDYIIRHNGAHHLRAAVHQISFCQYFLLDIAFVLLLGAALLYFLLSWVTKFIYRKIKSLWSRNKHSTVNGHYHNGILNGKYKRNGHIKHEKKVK
Put plainly: CGT enzyme assay, RapidFire/MS/MS readout (Table 1 ranges with one asterisk *). It counts as biochemical. As to conditions: RapidFire method (range with one asterisk *). The gist of the method: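 Lysate (4 μg) of CHO cells transfected with full-length human CGT incubated 1 h at 37 °C with compound (0.001–50 μM) in pH 7.2 HEPES buffer with 10 μM C6-NBD-dihydro-ceramide, 17.5 μM UDP-galactose, Mg2+/Mn2+, CHAPS, BSA, 0.5% DMSO; ** set also contained 0.01% Tween 80. Product quantified by RapidFire/MS/MS, normalized to internal standard; IC50 from sigmoidal variable-slope fits.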
In the case of `NC1CCN(C(=O)[C@@H](NS(=O)(=O)c2ccc3cc(OC4CCCC4)ccc3c2)C(F)(F)c2ccc(Oc3ccccc3)cc2)CC1` [Compound 61-1, (R)—N-(3-(4-aminopiperidin-1-yl)-1,1-difluoro-3-oxo-1-(4-phenoxyphenyl)propan-2-yl)-6-(cyclopentyloxy)naphthalene-2-sulfonamide], the pIC50 was > 6.00.

In the case of `NC1CCN(C(=O)[C@H](NS(=O)(=O)c2ccc3cc(OC4CCCC4)ccc3c2)C(F)(F)c2ccc(Oc3ccccc3)cc2)CC1` [Compound 61-2, (S)—N-(3-(4-aminopiperidin-1-yl)-1,1-difluoro-3-oxo-1-(4-phenoxyphenyl)propan-2-yl)-6-(cyclopentyloxy)naphthalene-2-sulfonamide], the pIC50 was > 6.00.

Regarding `CN([C@H](C(=O)N1CCC(N)CC1)C(F)(F)c1ccc(Oc2ccccc2)cc1)S(=O)(=O)c1ccc2cc(OC3CCCC3)ccc2c1` [Compound 62-1, (R)—N-(3-(4-aminopiperidin-1-yl)-1,1-difluoro-3-oxo-1-(4-phenoxyphenyl)propan-2-yl)-6-(cyclopentyloxy)-N-methylnaphthalene-2-sulfonamide trifluoroacetate], the pIC50 was 5.00 to 6.00.

Turning to `CN([C@@H](C(=O)N1CCC(N)CC1)C(F)(F)c1ccc(Oc2ccccc2)cc1)S(=O)(=O)c1ccc2cc(OC3CCCC3)ccc2c1` [Compound 62-2, (S)—N-(3-(4-aminopiperidin-1-yl)-1,1-difluoro-3-oxo-1-(4-phenoxyphenyl)propan-2-yl)-6-(cyclopentyloxy)-N-methylnaphthalene-2-sulfonamide trifluoroacetate], the pIC50 was 5.00 to 6.00.

`NC1CCN(C(=O)[C@@H](NS(=O)(=O)c2ccc(OCC3CCCCC3)cc2)C(F)(F)c2ccc(Oc3ccccc3)cc2)CC1` [Compound 63-1, (R)—N-(3-(4-aminopiperidin-1-yl)-1,1-difluoro-3-oxo-1-(4-phenoxyphenyl)propan-2-yl)-4-(cyclohexylmethoxy)benzenesulfonamide trifluoroacetate] gave a negative-log IC50 (pIC50) of 5.00 to 6.00.

Compound `NC1CCN(C(=O)[C@H](NS(=O)(=O)c2ccc(OCC3CCCCC3)cc2)C(F)(F)c2ccc(Oc3ccccc3)cc2)CC1` [Compound 63-2, (S)—N-(3-(4-aminopiperidin-1-yl)-1,1-difluoro-3-oxo-1-(4-phenoxyphenyl)propan-2-yl)-4-(cyclohexylmethoxy)benzenesulfonamide trifluoroacetate] showed a pIC50 of 4.52 to 5.00.

For `CN([C@H](C(=O)N1CCC(N)CC1)C(F)(F)c1ccc(Oc2ccccc2)cc1)S(=O)(=O)c1ccc(OCC2CCCCC2)cc1` [Compound 64-1, (R)—N-(3-(4-aminopiperidin-1-yl)-1,1-difluoro-3-oxo-1-(4-phenoxyphenyl)propan-2-yl)-4-(cyclohexylmethoxy)-N-methylbenzenesulfonamide], the pIC50 was 5.00 to 6.00.

As to `CN([C@@H](C(=O)N1CCC(N)CC1)C(F)(F)c1ccc(Oc2ccccc2)cc1)S(=O)(=O)c1ccc(OCC2CCCCC2)cc1` [Compound 64-2, (S)—N-(3-(4-aminopiperidin-1-yl)-1,1-difluoro-3-oxo-1-(4-phenoxyphenyl)propan-2-yl)-4-(cyclohexylmethoxy)-N-methylbenzenesulfonamide], the negative-log IC50 (pIC50) was 4.52 to 5.00.

`NC1CC2CCC(C1)N2C(=O)[C@@H](NS(=O)(=O)c1ccc2cc(OC3CCCC3)ccc2c1)C(F)(F)c1cccc(Br)c1` (stereo partly drawn) [Compound 65-1, N-((2R)-3-(3-amino-8-azabicyclo[3.2.1]octan-8-yl)-1-(3-bromophenyl)-1,1-difluoro-3-oxopropan-2-yl)-6-(cyclopentyloxy)naphthalene-2-sulfonamide] had a pIC50 of 5.00 to 6.00.

`NC1CC2CCC(C1)N2C(=O)[C@H](NS(=O)(=O)c1ccc2cc(OC3CCCC3)ccc2c1)C(F)(F)c1cccc(Br)c1` (stereo partly drawn) [Compound 65-2, N-((2S)-3-(3-amino-8-azabicyclo[3.2.1]octan-8-yl)-1-(3-bromophenyl)-1,1-difluoro-3-oxopropan-2-yl)-6-(cyclopentyloxy)naphthalene-2-sulfonamide]: the pIC50 is 4.52 to 5.00.

Consider `NC1CC2CCC(C1)N2C(=O)[C@@H](NS(=O)(=O)c1ccc2cc(OC3CCCC3)ccc2c1)C(F)(F)c1cccc(-c2ccccc2)c1` (stereo partly drawn) [Compound 66-1, N-((2R)-1-([1,1′-biphenyl]-3-yl)-3-(3-amino-8-azabicyclo[3.2.1]octan-8-yl)-1,1-difluoro-3-oxopropan-2-yl)-6-(cyclopentyloxy)naphthalene-2-sulfonamide], for which the negative-log IC50 (pIC50) was > 6.00.

In turn, `NC1CC2CCC(C1)N2C(=O)[C@H](NS(=O)(=O)c1ccc2cc(OC3CCCC3)ccc2c1)C(F)(F)c1cccc(-c2ccccc2)c1` (stereo partly drawn) [Compound 66-2, N-((2S)-1-([1,1′-biphenyl]-3-yl)-3-(3-amino-8-azabicyclo[3.2.1]octan-8-yl)-1,1-difluoro-3-oxopropan-2-yl)-6-(cyclopentyloxy)naphthalene-2-sulfonamide] gave a pIC50 of 5.00 to 6.00.

As to `CN([C@H](C(=O)N1C2CCC1CC(N)C2)C(F)(F)c1cccc(Br)c1)S(=O)(=O)c1ccc2cc(OC3CCCC3)ccc2c1` (stereo partly drawn) [Compound 67-1, N-((2R)-3-(3-amino-8-azabicyclo[3.2.1]octan-8-yl)-1-(3-bromophenyl)-1,1-difluoro-3-oxopropan-2-yl)-6-(cyclopentyloxy)-N-methylnaphthalene-2-sulfonamide], the negative logarithm of the IC50 (pIC50) was 5.00 to 6.00.

The compound `CN([C@@H](C(=O)N1C2CCC1CC(N)C2)C(F)(F)c1cccc(Br)c1)S(=O)(=O)c1ccc2cc(OC3CCCC3)ccc2c1` (stereo partly drawn) [Compound 67-2, N-((2S)-3-(3-amino-8-azabicyclo[3.2.1]octan-8-yl)-1-(3-bromophenyl)-1,1-difluoro-3-oxopropan-2-yl)-6-(cyclopentyloxy)-N-methylnaphthalene-2-sulfonamide] showed a negative-log IC50 (pIC50) of 4.00 to 4.52.

In turn, `CCN([C@H](C(=O)N1C2CCC1CC(N)C2)C(F)(F)c1ccc(Br)cc1)S(=O)(=O)c1ccc2cc(OC3CCCC3)ccc2c1` (stereo partly drawn) [Compound 68-1, N-((2R)-3-(3-amino-8-azabicyclo[3.2.1]octan-8-yl)-1-(4-bromophenyl)-1,1-difluoro-3-oxopropan-2-yl)-6-(cyclopentyloxy)-N-ethylnaphthalene-2-sulfonamide] showed a negative logarithm of the IC50 (pIC50) of 5.00 to 6.00.

As for `CCN([C@@H](C(=O)N1C2CCC1CC(N)C2)C(F)(F)c1ccc(Br)cc1)S(=O)(=O)c1ccc2cc(OC3CCCC3)ccc2c1` (stereo partly drawn) [Compound 68-2, N-((2S)-3-(3-amino-8-azabicyclo[3.2.1]octan-8-yl)-1-(4-bromophenyl)-1,1-difluoro-3-oxopropan-2-yl)-6-(cyclopentyloxy)-N-ethylnaphthalene-2-sulfonamide], the pIC50 was 4.00 to 4.52.

`NC1CCN(C(=O)[C@@H](NS(=O)(=O)c2ccc3cc(OC4CCCC4)ccc3c2)C(F)(F)c2cccc(-c3ccccc3)c2)CC1` [Compound 69-1, (R)—N-(1-([1,1′-biphenyl]-3-yl)-3-(4-aminopiperidin-1-yl)-1,1-difluoro-3-oxopropan-2-yl)-6-(cyclopentyloxy)naphthalene-2-sulfonamide trifluoroacetate] gave a negative logarithm of the IC50 (pIC50) of 5.00 to 6.00.

On to `NC1CCN(C(=O)[C@H](NS(=O)(=O)c2ccc3cc(OC4CCCC4)ccc3c2)C(F)(F)c2cccc(-c3ccccc3)c2)CC1` [Compound 69-2, (S)—N-(1-([1,1′-biphenyl]-3-yl)-3-(4-aminopiperidin-1-yl)-1,1-difluoro-3-oxopropan-2-yl)-6-(cyclopentyloxy)naphthalene-2-sulfonamide trifluoroacetate], for which the pIC50 was 4.00 to 4.52.
